The results in this text go back to publication PMC3163098 (2011).

What all share (assay type): binding
Assay [1] deals with T1, cytochrome P450 2B4 (Oryctolagus cuniculus, UniProt P00178, H226Y).
T1 sequence (P00178 28-491 H226Y): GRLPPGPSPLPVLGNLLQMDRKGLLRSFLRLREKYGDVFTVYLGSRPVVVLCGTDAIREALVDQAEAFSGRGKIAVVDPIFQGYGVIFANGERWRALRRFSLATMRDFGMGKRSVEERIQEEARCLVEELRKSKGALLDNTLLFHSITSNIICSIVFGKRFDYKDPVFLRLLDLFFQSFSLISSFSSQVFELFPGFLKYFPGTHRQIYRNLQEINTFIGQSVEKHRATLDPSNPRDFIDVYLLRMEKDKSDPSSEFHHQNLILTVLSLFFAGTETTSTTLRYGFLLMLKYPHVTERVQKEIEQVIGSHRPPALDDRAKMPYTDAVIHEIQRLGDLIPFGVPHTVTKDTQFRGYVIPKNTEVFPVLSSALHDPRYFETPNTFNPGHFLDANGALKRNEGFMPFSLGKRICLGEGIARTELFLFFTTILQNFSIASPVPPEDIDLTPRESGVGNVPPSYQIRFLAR
In words: UV-visible difference spectral titration.

Assay [2] concerns the target T1, cytochrome P450 2B4. In words: UV-visible competition with benzphetamine.
In assay [3] the target is T1, cytochrome P450 2B4. In words: UV-visible difference spectral titration. The source holds these as a separate data set.
Assay [4] addresses T1, cytochrome P450 2B4. In words: UV-visible difference spectral titration. The source holds these as a separate data set.

What is called Kd is the constant that tells how readily two partners part at equilibrium. Lower therefore signals tighter binding.

`Cc1c(N)c(=O)n(-c2ccccc2)n1C` [AAP, aminoantipyrine] returned a dissociation constant (Kd) on cytochrome P450 2B4 [1] of 2.6 mM. That is a millimolar value.
In turn, `Cc1c(N(C)C)c(=O)n(-c2ccccc2)n1C` [AP, amidopyrine] registered a Kd at cytochrome P450 2B4 [2] of 2 mM.
In turn, `C[C@@H](Cc1ccccc1)N(C)Cc1ccccc1` [BP, benzphetamine] came in with a Kd at cytochrome P450 2B4 [3] of 34 µM.
As for `CNc1c(C)n(C)n(-c2ccccc2)c1=O` [DMAP, desmethylamidopyrine], the Kd at cytochrome P450 2B4 [4] turned out to be 3.2 mM. This counts as millimolar.
